Laboratory results reported in patent publication US20190100555A1, “EYE-CARE PEPTIDE, ITS COMPOSITION AND METHOD OF USING THE SAME” (PRO SUNFUN BIOTECH RESEARCH AND DEVELOPMENT CO., LTD., priority 2017, published 2019).
Peptide text beside a SMILES is read from it.

System: HCEC cells
Assay: MTT assay (cell viability)
Assay type: cell-based, Human
Protocol: Human corneal epithelial cell line, HCEC, was cultured in complete KSF containing keratinocyte-serum free medium, 5 ng/ml human recombinant EGF, 0.05 mg/ml bovine pituitary extract, 0.005 mg/ml insulin and 500 ng/ml hydrocortisone under 5% CO2 at 37° C.
Cells (2×10^4) in 1 ml complete KSF were seeded in 12-well plates with or without Peptide NO. 12. Seventy microliters of 5 mg/ml 3-(4,5-dimethyl-2-thiazolyl)-2,5-diphenyl-2H-tetrazolium bromide solution (MTT; Sigma) was added to each well for the indicated times and incubated at 37° C. for 3 hours, after which 700 μl 10% SDS in 0.01 N HCl was added to dissolve the MTT formazan crystals. The resultant optical density was measured spectrophotometrically at dual wavelengths, 550 and 630 nm.

Question: With `CC(C)C[C@H](NC(=O)[C@@H]1CCCN1C(=O)[C@H](CC(N)=O)NC(=O)[C@@H](N)CCCNC(=N)N)C(=O)N[C@@H](CCC(=O)O)C(=O)N[C@@H](CCC(=O)O)C(=O)N[C@H](C(=O)O)[C@@H](C)O` [Peptide NO. 12, ArgAsnProLeuGluGluThr] (H-RNPLEET-OH) as the compound, how does the “viability of HCEC cells” value (24 hours, 5, 10, 25 and 50 μg/ml) read?
Answer: did not significantly affect viability

Question: What about the “viability of HCEC cells” value (48 hours, 5, 10, 25 and 50 μg/ml) of the same compound?
Answer: did not significantly affect viability
